Reference: patent US9751869B2, “LXR modulators” (BRISTOL-MYERS SQUIBB COMPANY, priority 2013, dated 2017)

Biological target: T1, LXRβ (Homo sapiens, UniProt P55055)
T1 construct: Co-transfection expression plasmids, comprising full-length LXRα (pCMX-h LXRα or LXRβ (pCMX-hLXRβ)); expressed in transfected cells; host or cells: CV-1 African green monkey kidney cells, transient transfection with pCMX-hLXRβ
T1 sequence (P55055 1-460): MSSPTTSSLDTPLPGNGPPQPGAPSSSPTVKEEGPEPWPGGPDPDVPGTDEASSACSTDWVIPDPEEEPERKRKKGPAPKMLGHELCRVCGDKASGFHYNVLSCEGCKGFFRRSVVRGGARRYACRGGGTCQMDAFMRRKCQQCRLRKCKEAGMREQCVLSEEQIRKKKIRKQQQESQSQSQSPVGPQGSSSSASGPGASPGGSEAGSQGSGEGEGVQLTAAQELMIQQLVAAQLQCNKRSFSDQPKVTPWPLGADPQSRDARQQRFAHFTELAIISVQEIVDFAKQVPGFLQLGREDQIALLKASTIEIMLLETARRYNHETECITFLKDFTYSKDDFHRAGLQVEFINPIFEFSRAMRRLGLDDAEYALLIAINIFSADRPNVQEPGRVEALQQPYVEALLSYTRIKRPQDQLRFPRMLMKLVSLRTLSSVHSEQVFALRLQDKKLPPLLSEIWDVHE
T1 sequence (P19793 1-462 partner): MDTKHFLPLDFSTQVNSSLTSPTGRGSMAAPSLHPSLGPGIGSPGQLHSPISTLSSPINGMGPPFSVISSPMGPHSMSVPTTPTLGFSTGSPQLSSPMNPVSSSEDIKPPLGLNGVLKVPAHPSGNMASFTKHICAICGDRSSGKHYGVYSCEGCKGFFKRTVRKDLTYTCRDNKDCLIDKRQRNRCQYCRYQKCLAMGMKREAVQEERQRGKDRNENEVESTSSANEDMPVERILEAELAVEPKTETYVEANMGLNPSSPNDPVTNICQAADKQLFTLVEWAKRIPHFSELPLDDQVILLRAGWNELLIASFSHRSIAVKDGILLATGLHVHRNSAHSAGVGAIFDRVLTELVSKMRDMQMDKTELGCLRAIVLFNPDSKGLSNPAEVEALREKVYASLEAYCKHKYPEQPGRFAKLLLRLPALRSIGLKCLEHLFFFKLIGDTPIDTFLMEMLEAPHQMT
Experiment: LXR/LXRE co-transfection assay (luciferase reporter) in CV-1 cells, LXRβ
Type: cell-based
Conditions: for EC50: CV-1 cells transfected with pCMX-hLXRβ and LXREx1-Tk-Luciferase, 20 hours incubation, read-out: LXRbeta agonism EC50; for Emax / LXRbeta % EFFICACY: CV-1 cells, relative to maximum response of high control N-(3-((4-fluorophenyl)-(naphthalene-2-sulfonyl)amino)propyl)-2,2-dimethylpropionamide; for Emax: read-out: LXRbeta % EFFICACY
In short: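 CV-1 cells transiently co-transfected with full-length human LXRβ, LXRE-Tk-luciferase reporter and β-galactosidase control, then exposed to compound (≤0.5% DMSO) for 20 h at 37 °C before luminescence read. EC50 from 10-point, half-log dose curves; efficacy relative to the sulfonamide high control, means of 2–3 experiments.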

| Compound | EC50 | Emax | LXRbeta % EFFICACY |
| --- | --- | --- | --- |
| Cc1nc(-c2cc(-c3cccc(S(C)(=O)=O)c3)ccc2-n2nc(C(F)(F)F)cc2C)c(-c2ccc3c(c2)OC(F)(F)O3)o1 [Example 388, 5-(2,2-difluorobenzo[d][1,3]dioxol-5-yl)-2-methyl-4-(4-(5-methyl-3-(trifluoromethyl)-1H-pyrazol-1-yl)-3′-(methylsulfonyl)biphenyl-3-yl)oxazole] | 0.009 µM | 78% | – |
| Cc1nc(-c2ccc(OC(F)(F)F)cc2)c(-c2cc(-c3cccc(S(C)(=O)=O)c3)ccc2-n2ccc(CO)n2)o1 [Example 321, (1-(3-(2-methyl-4-(4-(trifluoromethoxy)phenyl)oxazol-5-yl)-3′-(methylsulfonyl)biphenyl-4-yl)-1H-pyrazol-3-yl)methanol] | 1.44 µM | 40% | – |
| Cn1nc(C(F)F)cc1-c1ccc(-c2cccc(S(C)(=O)=O)c2)cc1-n1nncc1-c1ccc(OC(F)(F)F)cc1 [Example 22, 1-{4-[3-(difluoromethyl)-1-methyl-1H-pyrazol-5-yl]-3′-(methylsulfonyl)biphenyl-3-yl}-5-{4-[(trifluoromethyl)oxy]phenyl}-1H-1,2,3-triazole] | 0.126 µM | 80% | – |
| Cn1nc(C(F)(F)C(N)=O)cc1-c1ccc(-c2cccc(S(C)(=O)=O)c2)cc1-n1nncc1-c1ccc(OC(F)(F)F)cc1 [Example 4, 2,2-difluoro-2-(1-methyl-5-(3′-(methylsulfonyl)-3-(5-(4-(trifluoromethoxy)phenyl)-1H-1,2,3-triazol-1-yl)biphenyl-4-yl)-1H-pyrazol-3-yl)acetamide] | 1.58 µM | 82% | – |
| Cc1nc(-c2ccc3c(c2)OC(F)(F)O3)c(-c2cc(-c3cc(F)c(CO)c(S(C)(=O)=O)c3)ccc2-c2cc(C(C)O)nn2C)o1 (stereo not shown) [Example 104, 1-(5-(3-(4-(2,2-difluorobenzo[d][1,3]dioxol-5-yl)-2-methyloxazol-5-yl)-3′-fluoro-4′-(hydroxymethyl)-5′-(methylsulfonyl)-[1,1′-biphenyl]-4-yl)-1-methyl-1H-pyrazol-3-yl)ethanol] | 0.054 µM | – | 56% |
| Cc1nc(-c2ccc(OC(F)(F)F)cc2)c(-c2cc(-c3cccc(S(C)(=O)=O)c3)ccc2-n2ccc(C(N)=O)n2)o1 [Example 308, 1-(3-(2-methyl-4-(4-(trifluoromethoxy)phenyl)oxazol-5-yl)-3′-(methylsulfonyl)biphenyl-4-yl)-1H-pyrazole-3-carboxamide] | 1.65 µM | 29% | – |
| Cc1nc(-c2ccc(OC(F)F)cc2)c(-c2cc(-c3cccc(S(C)(=O)=O)c3)ccc2-n2ccc(C(F)(F)F)n2)o1 [Example 435, 4-(4-(difluoromethoxy)phenyl)-2-methyl-5-(3′-(methylsulfonyl)-4-(3-(trifluoromethyl)-1H-pyrazol-1-yl)-[1,1′-biphenyl]-3-yl)oxazole] | 0.03 µM | 53% | – |
| Cc1nc(-c2ccc3c(c2)OC(F)(F)O3)c(-c2cc(-c3cc(F)c(CO)c(S(C)(=O)=O)c3)ccc2-c2cc(C(C)(C)O)nn2C)o1 [Example 92, 2-(5-(3-(4-(2,2-difluorobenzo[d][1,3]dioxol-5-yl)-2-methyloxazol-5-yl)-3′-fluoro-4′-(hydroxymethyl)-5′-(methylsulfonyl)biphenyl-4-yl)-1-methyl-1H-pyrazol-3-yl)propan-2-ol] | 0.105 µM | 38% | – |
| Cc1nc(-c2ccc(OC(F)(F)F)cc2)c(-c2cc(-c3cccc(S(N)(=O)=O)c3)ccc2-c2cc(C(F)(F)F)nn2C)o1 [Example 126, 4′-(1-methyl-3-(trifluoromethyl)-1H-pyrazol-5-yl)-3′-(2-methyl-4-(4-(trifluoromethoxy)phenyl)oxazol-5-yl)-[1,1′-biphenyl]-3-sulfonamide] | 0.299 µM | 85% | – |
| Cc1nc(-c2ccc3c(c2)OC(F)(F)O3)c(-c2cc(-c3cccc(S(C)(=O)=O)c3)ccc2-c2cc(C(C)(C)O)nn2C)o1 [Example 54, 2-(5-(3-(4-(2,2-difluorobenzo[d][1,3]dioxol-5-yl)-2-methyloxazol-5-yl)-3′-(methylsulfonyl)biphenyl-4-yl)-1-methyl-1H-pyrazol-3-yl)propan-2-ol] | 0.297 µM | 53% | – |
| Cc1nc(-c2ccc(OC(F)(F)F)cc2)c(-c2cc(-c3cccc(S(C)(=O)=O)c3)ccc2-n2ccc(C#N)n2)o1 [Example 318, 1-(3-(2-methyl-4-(4-(trifluoromethoxy)phenyl)oxazol-5-yl)-3′-(methylsulfonyl)biphenyl-4-yl)-1H-pyrazole-3-carbonitrile] | 0.246 µM | 84% | – |
| CCC(F)(F)c1cc(-c2ccc(-c3cccc(S(C)(=O)=O)c3)cc2-n2nncc2-c2ccc(OC(F)(F)F)cc2)n(C)n1 [Example 9, 1-(4-(3-(1,1-difluoropropyl)-1-methyl-1H-pyrazol-5-yl)-3′-(methylsulfonyl)biphenyl-3-yl)-5-(4-(trifluoromethoxy)phenyl)-1H-1,2,3-triazole] | 0.07 µM | 82% | – |
| Cc1nc(-c2ccc(OC(F)(F)F)cc2)c(-c2cc(-c3cccc(S(C)(=O)=O)c3)ccc2-n2ccc(C(C)O)n2)o1 (single isomer, unassigned) [Example 368, 1-(1-(3-(2-methyl-4-(4-(trifluoromethoxy)phenyl)oxazol-5-yl)-3′-(methylsulfonyl)-[1,1′-biphenyl]-4-yl)-1H-pyrazol-3-yl)ethanol] | 0.89 µM | – | 50% |
| Cc1nc(-c2ccc3c(c2)OC(F)(F)O3)c(-c2cc(-c3cccc(S(C)(=O)=O)c3)ccc2-c2cc(C(=O)NCC(F)(F)F)nn2C)o1 [Example 111, 5-(3-(4-(2,2-difluorobenzo[d][1,3]dioxol-5-yl)-2-methyloxazol-5-yl)-3′-(methylsulfonyl)-[1,1′-biphenyl]-4-yl)-1-methyl-N-(2,2,2-trifluoroethyl)-1H-pyrazole-3-carboxamide] | 0.284 µM | 51% | – |
| Cc1nc(-c2ccc(OC(F)F)c(F)c2)c(-c2cc(-c3cccc(S(C)(=O)=O)c3)ccc2-n2cc(Cl)c(C(F)(F)F)n2)o1 [Example 433] | 0.05 µM | 83% | – |
| Cc1nc(-c2ccc3c(c2)OC(F)(F)O3)c(-c2cc(-c3cc(F)c(CO)c(S(C)(=O)=O)c3)ccc2-c2cc(C(F)(F)C(=O)NC3CC3)nn2C)o1 [Example 88, N-cyclopropyl-2-(5-(3-(4-(2,2-difluorobenzo[d][1,3]dioxol-5-yl)-2-methyloxazol-5-yl)-3′-fluoro-4′-(hydroxymethyl)-5′-(methylsulfonyl)biphenyl-4-yl)-1-methyl-1H-pyrazol-3-yl)-2,2-difluoroacetamide] | 0.085 µM | 49% | – |
| Cn1nc(C(F)(F)C(N)=O)cc1-c1ccc(-c2cc(F)c(CO)c(S(C)(=O)=O)c2)cc1-n1nncc1-c1ccc(OC(F)(F)F)cc1 [Example 8, 2,2-difluoro-2-(5-(3′-fluoro-4′-(hydroxymethyl)-5′-(methylsulfonyl)-3-(5-(4-(trifluoromethoxy)phenyl)-1H-1,2,3-triazol-1-yl)biphenyl-4-yl)-1-methyl-1H-pyrazol-3-yl)acetamide] | 2.32 µM | 79% | – |
| Cc1nc(-c2cc(-c3cc(F)c(CO)c(S(C)(=O)=O)c3)ccc2-n2nc(C(F)(F)F)cc2C)c(-c2ccc(OC(F)(F)F)cc2)o1 [Example 386, (3-fluoro-4′-(5-methyl-3-(trifluoromethyl)-1H-pyrazol-1-yl)-3′-(2-methyl-5-(4-(trifluoromethoxy)phenyl)oxazol-4-yl)-5-(methylsulfonyl)biphenyl-4-yl)methanol] | 0.034 µM | 86% | – |
| Cc1nc(-c2ccc3c(c2)OC(F)(F)O3)c(-c2cc(-c3cccc(S(C)(=O)=O)c3)ccc2-n2nc(C(F)(F)F)cc2C)o1 [Example 328, 4-(2,2-difluorobenzo[d][1,3]dioxol-5-yl)-2-methyl-5-(4-(5-methyl-3-(trifluoromethyl)-1H-pyrazol-1-yl)-3′-(methylsulfonyl)biphenyl-3-yl)oxazole] | 0.024 µM | 112% | – |
| COc1ncc(-c2nc(C)oc2-c2cc(-c3cc(F)c(CO)c(S(C)(=O)=O)c3)ccc2-n2cc(Cl)c(C(F)(F)F)n2)cn1 [Example 428, (4′-(4-chloro-3-(trifluoromethyl)-1H-pyrazol-1-yl)-3-fluoro-3′-(4-(2-methoxypyrimidin-5-yl)-2-methyloxazol-5-yl)-5-(methylsulfonyl)-[1,1′-biphenyl]-4-yl)methanol] | 0.093 µM | 83% | – |
